Experiment [1] has as its system 5637 bladder cancer cells. The experiment in a line: Colony formation assay of SORLA silenced 5637 treated with CADs. The class given is cell-based. To be noted: drug for 7 days combined with SORLA silencing. The protocol: Transient SORLA (with two individual siRNAs) or scramble silencing was performed for 5637 bladder cancer cells. After 48 hours of silencing, 20 000 cells per well were plated on colony formation assay on 12-well plate. […] DMSO was used as control. Cells were treated for 7 days and drugs including media was replenished between 3-4 days of culture. After 7 days, cells were stained with 0.2% Crystal Violet in 10% EtOH for 10 min RT. Cells were washed extensively with PBS and dried. Wells were scanned and confluency was measured by using Image J colony area plug-in.

For experiment [2], the system named is HER2-amplified breast cancer cells.
Protocol: Transient SORLA (with two individual siRNAs) or scramble silencing was performed for 5637 bladder cancer cells. After 48 hours of silencing, 3000 cells per well were plated on 96-well plate. Cells were treated with increasing concentration of Ebastine and Loratadine for 48 hours. After 48 hours of treatment, WST-8 reagent (Sigma, 96992) was added 10 μl/well and absorbance 450 nm was measured by plate reader after 1-2 h of incubation at 37° C. with 5% CO2. Medium without cells was used as background and the A450 of background was subtracted from the samples. Relative viability was calculated by normalizing the A450 values of drug treated to DMSO treated cells. IC50 values were calculated by GraphPad using nonlinear regression to fit the data to the log(inhibitor) vs. response (variable slope) curve.
A further experiment has as its system MDA-MB-361 cells. The experiment in a line: Proliferation assay (WST-8), MDA-MB-361. The class given is cell-based. The note with it: MDA-MB-361, lapatinib treated. The protocol: Cells were plated on 96-well plate (3000 cells/well, 4 replicates per sample) in volume of 100 μl.
Transfection of siRNAs to silence SORLA or HER2 protein expression: Cells were seeded on 6-well plate day before the transfection (300 000-500 000 cells/well). On next day, transfection mix containing siRNA (20-40 nM of targeting SORLA, 40 nM of HER2 targeting siRNA and 20-40 nM scramble siRNA) and RNAiMAX transfection reagent (Manufacturer) in OptiMEM medium was prepared. The mix was allowed to stand for 15 min at room temperature before adding to the cells on 6 well plate. After 48 hours of transfection cells were used for experiments.

A further experiment has as its system BT474 cells. The experiment in a line: Cell cycle analysis (propidium iodide, flow cytometry). The class given is cell-based. The note with it: BT474, 0.5 μM lapatinib for 24 hours; stated as the effect SORLA silencing mimics. The protocol: BT474 transfected with control siRNA and with two individual siRNA against SORLA (#3 and #4) and BT474 treated with DMSO or with 0.5 μM Lapatinib for 24 hours were trypsinized, spun down and suspended in ice cold PBS (1 ml). Cells were fixed with 70% EtOH (ice cold) by adding 3 ml of 70% EtOH in dropwise manner while gently vortexin the cells. Cells were then stored at +4° C. until propidium iodide (PI) staining was performed. PI (Sigma) staining was performed by preparing 25 μg/ml PI solution in PBS with RNAase A (Qiagen). Cells were washed twice with PBS. After that cells were suspended in PI solution and incubated 10 minutes on ice. Samples were protected from light and kept on ice until flow cytometry analysis. Samples were run with LSR II and cell cycle analysis was performed with FlowJo.

In experiment [3] the test system is LAMP1- and CD63 (LAMP3)-positive lysosomes. In words: Immunofluorescent imaging of lysosome aggregation (LAMP1, CD63). To be noted: Lapatinib 24 h, 0.5 mM. The class given is cell-based. The procedure:
(§1) Cells were plated on ibidi 8-well dishes or in some cases in […] ibidi dishes. Cells were fixed with 4% paraformaldehyde (PFA) in phosphate buffer saline (PBS) for 10 min at room temperature. PFA was quenched by incubating with 50 mM NH4Cl for 15 min at room temperature. Cells were blocked and permeabilized with 30% horse serum in PBS +0.3% Triton X-100 15 min at room temperature. Primary antibodies were diluted in 30% horse serum and incubated over night at +4° C. HER2 staining was performed with Herceptin (Roche) or with mouse monoclonal antibody (ThermoScientific; MA5-14057) in dilution of 1:300, LAMP1 antibody (Santa Cruz; SC-20011 (H4A3)) was diluted 1:50, rabbit monoclonal SORLA antibody (CM Petersen Lab, Arhus University) in dilution of 1:300, goat anti-EEA-1 (Santa Cruz; sc-6415) 1:50, goat anti-VPS35 (Abcam; ab10099) 1:300, mouse anti-CD63 (Hybridoma Bank; H5C6) 1:300 and rabbit anti-TGN46 (Abcam; ab50595) 1:300. After primary antibody incubation, cells were washed three times with PBS for 5 min at room temperature and then secondary antibodies were diluted 1:300 in 30% horse serum. […]

For another experiment, the system named is TFEB and LAMP1. The experiment in a line: Western blot analysis of TFEB and LAMP1 protein levels. The class given is cell-based. To be noted: SKBR3, lapatinib treatment (24 h). The procedure: Protein extracts were sonicated (0.5 min ON/0.5 min OFF totally 5 min with full power) and protein levels were measured by Bio-Rad protein quantification kit. Sample buffer was added and samples were boiled for 5 min at 95° C. heat block. Proteins were separated on 4-20% gradient gel (Bio-Rad) and transferred into nitrocellulose membranes (Bio-Rad) by semi-dry turbo blot (Bio-Rad). Membranes were blocked with 5% milk powder in TBST for 1 hour at room temperature. Primary antibodies were diluted in blocking buffer (ThermoScientific) and PBS (1:1 ratio) mix and incubated over night at +4° C. Following primary antibodies were used: HER2 (Thermo Scientific, MA5-14057), SORLA (BD Transduction Lab, 612633), α-tubulin (Hybridoma Bank).
On the technique in general: Immunoblotting shows a protein as a band on a membrane.

For another experiment, the system named is HER2. The experiment in a line: Immunofluorescent imaging of HER2 localization. The class given is cell-based. The note with it: BT474, primaquine 24 h, 0.3 and 0.6 mM. The protocol: as §1

Entries after “also recorded” stand apart in the source; their conditions may differ.

With `CC(C)(C)c1ccc(C(=O)CCCN2CCC(OC(c3ccccc3)c3ccccc3)CC2)cc1` [Ebastine], in experiment [1], the “5637 bladder cancer colony growth” value is given as “significant synergistic effects”. Besides, the cell viability result in experiment [2] (Ebastine 48 hours in combination with SORLA silencing, irrespective of anti-HER2 therapy sensitivity) was “synergistic effect on cell viability; also recorded: significantly decreased cell viability”. Further, in experiment [2] (Ebastine combined with SORLA silencing), the “cell death in vitro” value is on record as “significantly increased cell death”.

In the case of `CCOC(=O)N1CCC(=C2c3ccc(Cl)cc3CCc3cccnc32)CC1` [Loratadine], the “5637 bladder cancer colony growth” value in experiment [1] is reported as “significant synergistic effects”.

As for `CS(=O)(=O)CCNCc1ccc(-c2ccc3ncnc(Nc4ccc(OCc5cccc(F)c5)c(Cl)c4)c3c2)o1` [lapatinib], the “proliferation / drug sensitivity” value in the experiment on MDA-MB-361 cells was “resistant to Lapatinib”. In addition, in the experiment with BT474 cells, the cell cycle distribution result was “increased accumulation of cells at G1/G0 and decreased number of cells in S phase”. In addition, the lysosome aggregation entry in experiment [3] (BT474 (sensitive)) was “induced lysosome aggregation”; in experiment [3] (MDA-MB-361 (resistant)), “not in the resistant MDA-MB-361 cells”. Also, the LAMP1 protein levels entry in the experiment on TFEB and LAMP1 is given as “similarly increased”.

As for `COc1cc(NC(C)CCCN)c2ncccc2c1` (stereo not shown) [primaquine], the HER2 localization result in the experiment on HER2 was “accumulation of intracellular HER2”.
